In publication PMC12583704 (Signal Transduction and Targeted Therapy, 2025):

Assay: Phase 1 study NCT03594422: adverse events graded by NCI CTCAE v4.03
Type: in vivo, human
Description: Part 1 was a dose-escalation study to determine the recommended phase 2 dose (RP2D) in solid tumors. […] The initial design was a 3 + 3 dose escalation from 20 mg, but the protocol was amended to randomly enroll and assign patients to starting doses of 30, 40, and 50 mg on the basis of safety data acquired in the CML trial.[20] […] An interactive web response system was used for randomization. Part 2 was a nonrandomized study focusing on patients with SDH-deficient GISTs. […] On the basis of preliminary data from adult patients, adolescent patients with advanced wild-type GISTs were also included in Part 2. The dosage for adolescents was adjusted according to their body weights.
AEs were evaluated at each follow-up visit: on Days 1, 8, 15, and 22 during Cycles 1 and 2; and on Days 1 and 15 in Cycle 3 and all subsequent cycles, up to 30 days after the final dose. All AEs were graded according to the National Cancer Institute Common Terminology Criteria for Adverse Events v4.03. Clinical laboratory investigations for routine blood examinations and serum chemistry parameters were performed during every cycle (on Day 1), during Cycles 1 and 2 (on Days 8, 15, and 22), and 30 days after the last dose of treatment. Urinalysis, coagulation, cardiac troponin I/T, lipase, amylase, and electrocardiographic evaluations were conducted at baseline; during Cycles 1 and 2 (on Days 1 and 15); during Cycles 3, 5, 7, and 9; every three cycles after Cycle 9 (on Day 1); and 14 days after the last dose of treatment. All patients underwent tumor imaging for response assessment via computed tomography or magnetic resonance imaging at screening and every two cycles (8 weeks) until progression or discontinuation. Target and nontarget lesions were assessed per the Response Evaluation Criteria in Solid Tumors version 1.1 (RECIST v1.1).

Cc1ccc(C(=O)Nc2ccc(CN3CCN(C)CC3)c(C(F)(F)F)c2)cc1C#Cc1cnc2[nH]ncc2c1 [Olverembatinib, 3-[(1H-pyrazolo[3,4-b]pyridin-5-yl)ethynyl]-4-methyl-N-{4-[(4-methylpiperazin-1-yl)methyl]-3-(trifluoromethyl)phenyl]benzamide]
TEAE: Abdominal pain (20 mg (n = 3), Any grade): 0 n (%)
TEAE: Alanine aminotransferase increased (20 mg (n = 3), Any grade): 0 n (%)
TEAE: Anemia (20 mg (n = 3), Any grade): 1 (33.3) n (%)
TEAE: Aspartate aminotransferase increased (20 mg (n = 3), Any grade): 0 n (%)
TEAE: C-reactive protein increased (20 mg (n = 3), Any grade): 0 n (%)
TEAE: Constipation (20 mg (n = 3), Any grade): 2 (66.7) n (%)
TEAE: Fatigue (20 mg (n = 3), Any grade): 0 n (%)
TEAE: Hyperuricemia (20 mg (n = 3), Any grade): 2 (66.7) n (%)
TEAE: Hypoalbuminemia (20 mg (n = 3), Any grade): 0 n (%)
TEAE: Leukocyte count increased (20 mg (n = 3), Any grade): 1 (33.3) n (%)
TEAE: Melanocytic nevus (20 mg (n = 3), Any grade): 0 n (%)
TEAE: Neutrophil count increased (20 mg (n = 3), Any grade): 1 (33.3) n (%)
TEAE: Pyrexia (20 mg (n = 3), Any grade): 0 n (%)
TEAEs (20 mg (n = 3), Any grade): 3 (100.0) n (%)
TRAE: ALT increased (20 mg (n = 3), Any grade): 0 n (%)
TRAE: AST increased (20 mg (n = 3), Any grade): 0 n (%)
TRAE: Anemia (20 mg (n = 3), Any grade): 0 n (%)
TRAE: Blood creatinine increased (20 mg (n = 3), Any grade): 0 n (%)
TRAE: Constipation (20 mg (n = 3), Any grade): 1 (33.3) n (%)
TRAE: Fatigue (20 mg (n = 3), Any grade): 0 n (%)
TRAE: Hypoalbuminemia (20 mg (n = 3), Any grade): 0 n (%)
TRAE: Leukocyte count increased (20 mg (n = 3), Any grade): 1 (33.3) n (%)
TRAE: Melanocytic nevus (20 mg (n = 3), Any grade): 0 n (%)
TRAE: Neutrophil count increased (20 mg (n = 3), Any grade): 1 (33.3) n (%)
TRAE: Platelet count increased (20 mg (n = 3), Any grade): 0 n (%)
TRAE: Pyrexia (20 mg (n = 3), Any grade): 0 n (%)
TEAE: Abdominal pain (20 mg (n = 3), Grade 3-5): 0 n (%)
TEAE: Alanine aminotransferase increased (20 mg (n = 3), Grade 3-5): 0 n (%)
TEAE: Anemia (20 mg (n = 3), Grade 3-5): 0 n (%)
TEAE: Aspartate aminotransferase increased (20 mg (n = 3), Grade 3-5): 0 n (%)
TEAE: C-reactive protein increased (20 mg (n = 3), Grade 3-5): 0 n (%)
TEAE: Constipation (20 mg (n = 3), Grade 3-5): 0 n (%)
TEAE: Fatigue (20 mg (n = 3), Grade 3-5): 0 n (%)
TEAE: Hyperuricemia (20 mg (n = 3), Grade 3-5): 0 n (%)
TEAE: Hypoalbuminemia (20 mg (n = 3), Grade 3-5): 0 n (%)
TEAE: Leukocyte count increased (20 mg (n = 3), Grade 3-5): 0 n (%)
TEAE: Melanocytic nevus (20 mg (n = 3), Grade 3-5): 0 n (%)
TEAE: Neutrophil count increased (20 mg (n = 3), Grade 3-5): 0 n (%)
TEAE: Pyrexia (20 mg (n = 3), Grade 3-5): 0 n (%)
TEAEs (20 mg (n = 3), Grade 3-5): 0 n (%)
TRAE: ALT increased (20 mg (n = 3), Grade 3-5): 0 n (%)
TRAE: AST increased (20 mg (n = 3), Grade 3-5): 0 n (%)
TRAE: Anemia (20 mg (n = 3), Grade 3-5): 0 n (%)
TRAE: Blood creatinine increased (20 mg (n = 3), Grade 3-5): 0 n (%)
TRAE: Constipation (20 mg (n = 3), Grade 3-5): 0 n (%)
TRAE: Fatigue (20 mg (n = 3), Grade 3-5): 0 n (%)
TRAE: Hypoalbuminemia (20 mg (n = 3), Grade 3-5): 0 n (%)
TRAE: Leukocyte count increased (20 mg (n = 3), Grade 3-5): 0 n (%)
TRAE: Melanocytic nevus (20 mg (n = 3), Grade 3-5): 0 n (%)
TRAE: Neutrophil count increased (20 mg (n = 3), Grade 3-5): 0 n (%)
TRAE: Platelet count increased (20 mg (n = 3), Grade 3-5): 0 n (%)
TRAE: Pyrexia (20 mg (n = 3), Grade 3-5): 0 n (%)
TEAE: Abdominal pain (30 mg (n = 15), Any grade): 5 (33.3) n (%)
TEAE: Alanine aminotransferase increased (30 mg (n = 15), Any grade): 6 (40.0) n (%)
TEAE: Anemia (30 mg (n = 15), Any grade): 8 (53.3) n (%)
TEAE: Aspartate aminotransferase increased (30 mg (n = 15), Any grade): 7 (46.7) n (%)
TEAE: C-reactive protein increased (30 mg (n = 15), Any grade): 3 (20.0) n (%)
TEAE: Constipation (30 mg (n = 15), Any grade): 5 (33.3) n (%)
TEAE: Fatigue (30 mg (n = 15), Any grade): 4 (26.7) n (%)
TEAE: Hyperuricemia (30 mg (n = 15), Any grade): 7 (46.7) n (%)
TEAE: Hypoalbuminemia (30 mg (n = 15), Any grade): 4 (26.7) n (%)
TEAE: Leukocyte count increased (30 mg (n = 15), Any grade): 8 (53.3) n (%)
TEAE: Melanocytic nevus (30 mg (n = 15), Any grade): 3 (20.0) n (%)
TEAE: Neutrophil count increased (30 mg (n = 15), Any grade): 6 (40.0) n (%)
TEAE: Pyrexia (30 mg (n = 15), Any grade): 5 (33.3) n (%)
TEAEs (30 mg (n = 15), Any grade): 15 (100.0) n (%)
TRAE: ALT increased (30 mg (n = 15), Any grade): 4 (26.7) n (%)
